Experimental findings from PMC10339607, “Screening and identification of emodin as an EBV DNase inhibitor to prevent its biological functions” (Virology Journal, 2023) are described below.

Bounds are passed on as bounds.

As a reminder, the IC50 is the concentration that inhibits the measured activity by half. A lower IC50 goes with inhibition by little substance.

T1 sequence (Q1HVE7 whole entry): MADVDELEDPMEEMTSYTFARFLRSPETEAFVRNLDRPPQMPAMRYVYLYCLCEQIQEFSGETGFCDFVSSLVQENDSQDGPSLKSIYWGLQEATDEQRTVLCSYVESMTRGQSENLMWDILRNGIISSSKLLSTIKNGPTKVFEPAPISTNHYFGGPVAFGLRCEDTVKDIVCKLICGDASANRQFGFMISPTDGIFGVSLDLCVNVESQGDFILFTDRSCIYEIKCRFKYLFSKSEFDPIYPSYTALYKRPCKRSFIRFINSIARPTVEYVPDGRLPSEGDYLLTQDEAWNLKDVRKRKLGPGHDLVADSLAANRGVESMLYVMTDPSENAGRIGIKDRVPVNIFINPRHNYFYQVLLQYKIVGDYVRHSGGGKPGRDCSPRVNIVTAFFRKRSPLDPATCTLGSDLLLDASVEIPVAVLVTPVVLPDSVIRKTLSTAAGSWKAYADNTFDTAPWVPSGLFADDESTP

This assay has as its target T1, EBV DNase (BGLF5) (Epstein-barr virus strain ag876, UniProt Q1HVE7).
T1 construct: full-length wild-type, 470 amino acids; pET-15b His-tag; E. coli BL21(DE3) pLysS
The experiment in a line: PicoGreen fluorescence nuclease activity assay. Format: biochemical.
In turn, `O=c1c(O)c(-c2ccc(O)cc2)oc2cc(O)cc(O)c12` [Kaempferol] gave an IC50 of 69 µM. In other words, the double-digit micromolar range. Turning to `C=CCSSCC=C` [diallyl disulfide], the IC50 is greater than 100 µM.

The compound `Cc1cc(O)c2c(c1)C(=O)c1cc(O)cc(O)c1C2=O` [emodin] had an IC50 of 31 µM. That is a double-digit micromolar value. The compound `O=C(O[C@@H]1Cc2c(O)cc(O)cc2O[C@@H]1c1cc(O)c(O)c(O)c1)c1cc(O)c(O)c(O)c1` [epigallocatechin gallate] displayed an IC50 of 89 µM. Take `C[S@@+]([O-])CCCCN=C=S` [sulforaphane]: the IC50 was greater than 100 µM.
